Reference: BindingDB's records for patent US20250051319 (Augustine Therapeutics, 2025)

Experiments:
[1] = molecular target: T1, Histone deacetylase 6 [482-800] (Homo sapiens, UniProt Q9UBN7); assay: Cellular Target Engagement Assay
T1 construct: 482-800
T1 sequence (Q9UBN7 whole entry): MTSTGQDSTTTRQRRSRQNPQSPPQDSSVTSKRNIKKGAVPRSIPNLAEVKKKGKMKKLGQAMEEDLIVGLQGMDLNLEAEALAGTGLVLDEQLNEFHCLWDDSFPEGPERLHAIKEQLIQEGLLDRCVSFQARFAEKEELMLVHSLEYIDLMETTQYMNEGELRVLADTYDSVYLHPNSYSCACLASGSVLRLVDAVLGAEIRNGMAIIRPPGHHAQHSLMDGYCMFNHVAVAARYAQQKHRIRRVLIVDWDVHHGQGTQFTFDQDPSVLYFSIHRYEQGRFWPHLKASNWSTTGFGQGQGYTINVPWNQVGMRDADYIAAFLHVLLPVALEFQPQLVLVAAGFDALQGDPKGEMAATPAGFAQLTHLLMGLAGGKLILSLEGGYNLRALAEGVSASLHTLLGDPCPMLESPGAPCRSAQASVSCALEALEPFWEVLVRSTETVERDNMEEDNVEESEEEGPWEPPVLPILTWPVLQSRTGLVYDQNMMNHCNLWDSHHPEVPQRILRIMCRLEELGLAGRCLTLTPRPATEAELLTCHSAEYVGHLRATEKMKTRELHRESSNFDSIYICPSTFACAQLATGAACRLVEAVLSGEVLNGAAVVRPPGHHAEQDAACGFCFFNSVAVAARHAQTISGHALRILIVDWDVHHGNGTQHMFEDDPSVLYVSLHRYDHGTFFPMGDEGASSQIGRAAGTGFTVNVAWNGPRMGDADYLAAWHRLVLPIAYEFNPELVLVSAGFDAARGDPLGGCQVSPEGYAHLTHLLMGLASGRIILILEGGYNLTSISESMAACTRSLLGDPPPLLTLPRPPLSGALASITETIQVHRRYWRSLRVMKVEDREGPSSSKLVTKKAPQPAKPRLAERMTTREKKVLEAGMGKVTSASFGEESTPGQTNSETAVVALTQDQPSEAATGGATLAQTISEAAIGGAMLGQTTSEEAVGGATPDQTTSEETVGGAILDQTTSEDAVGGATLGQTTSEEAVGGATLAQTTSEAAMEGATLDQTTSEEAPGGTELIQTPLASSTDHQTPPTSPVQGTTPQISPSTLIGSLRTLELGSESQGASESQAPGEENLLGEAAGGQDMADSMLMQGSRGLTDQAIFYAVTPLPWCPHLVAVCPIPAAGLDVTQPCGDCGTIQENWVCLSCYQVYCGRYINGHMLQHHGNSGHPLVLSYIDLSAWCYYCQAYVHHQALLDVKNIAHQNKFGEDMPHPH
Description: NanoBRET target engagement was performed against the catalytic domain 2 (CD2) of HDAC6, with minor modifications of kit manufacturer protocol (Promega). Expression of exogenous NanoLuc-HDAC6(CD2) fusion and in HEK293T was achieved following transient transfection with FuGENE HD Transfection Reagent (Promega). […] Compounds (dissolved in 100% DMSO) or DMSO (vehicle) were added either manually by diluting them in culture medium at 8× final assay concentration and then adding 5 μL to assay plate or in an automated way by adding 160 nL compound to 5 μL OptiMEM without phenol red (Gibco) using the Echo650 (Labcyte). Tracer solution was added to the cells before seeding 35 μL cell/tracer mixture in the assay plate. […] Assay plates were incubated at 37° C. in a humidified atmosphere containing 5% C02 for 2 hours. […] BRET ratios were calculated from acceptor/donor signal ratio (mBRET=acceptor/donor*1000) and normalized for each plate. Percentage inhibition was calculated by setting the mBRET obtained with cells without tracer to 100%, while the mBRET obtained with uninhibited cells with tracer was set to 0%. IC50-values were calculated from the percentage inhibition with the log(inhibitor) vs. response—Variable slope (four parameters) nonlinear regression in GraphPad Prism software.

Histone deacetylase 6 = molecular target: T2, Histone deacetylase 6 (Homo sapiens, UniProt Q9UBN7); assay: HDAC6 Enzymatic Activity Assay
T2 sequence (Q9UBN7 whole entry): T1 sequence (Q9UBN7 whole entry)
Description: Dose response testing of HDAC6 and HDAC 1 were run at Reaction Biology Corporation (RBC). […] 2× enzyme was delivered in the wells of the reaction plate except for the “no enzyme” control wells. In the latter, buffer was added. Compounds in 100% DMSO were delved into the enzyme mixture by acoustic technology (Echo550). Plates are spun down and compounds were incubation with the enzyme for 10 min at room temperature. […] Developer containing Trichostatin A was added to stop the reaction and generate fluorescent color. A kinetic measurement was carried out for 20 min with 5 min interval on the Envision plate reader (Perkin Elmer, Ex/Em=360/460). End point reading i.e., plateau of the development reaction was used for analysis. Data was reported by RBC as percentage enzyme activity. Percentage inhibition was calculated by subtracting percentage enzyme activity from 100. IC50 values were calculated using GraphPad Prism 9 based on the log(inhibitor) vs. response—Variable slope (four parameters) equation.

Row | IC50 [1] [µM] | IC50 (Histone deacetylase 6) [µM] | Structure (SMILES)
1 | < 0.1 | – | O=C(CSc1nc(C(F)(F)F)nc2ncccc12)c1ccc(CN2CC[C@@H](O)C2=O)s1 [US20250051319, Compound 155]
2 | – | < 0.1 | COCC(=O)NCc1ccc(C(=O)CSc2nc(C)nc3ncc(OC)cc23)s1 [US20250051319, Compound 163]
